Source: patent US20240133870A1, “COMBINED TREATMENT FOR CANCER” (Yeda Research and Development Co. Ltd., priority 2021, published 2024)

Columns and labels:
[1] = tested on: BRAF (V600E) melanoma cell lines; test: High-throughput secretome screen of GFP-labeled cells (rScore, bScore, ranks); format: cell-based, human; settings: for effect on resistance to BRAF/MEK inhibition (rScore sorted, 297 factors): UACC62 cell line
Description: Cell lines—All cell lines (Table 1 hereinbelow) were cultured in DMEM supplemented with 100 units/ml Penicillin and Streptomycin, 2 μmM Glutamine, 1 μmM Pyruvate and 10% FCS, and maintained in a humidified incubator at 37° C. and 5% CO2. Cells were routinely tested for Mycoplasma contamination by PCR. To generate stable cell lines constitutively expressing GFP, cells were infected with lentivirus bearing plasmid pLEX_TRC206 and sorted by FACS to enrich for GFP positive population. For the in-vitro experiments, human cancer cell lines which constitutively expressed GFP were treated with various cytotoxic and targeted drugs (see Table 1 hereinbelow); and the effect of different secreted factors (Table 2 hereinbelow) on the innate resistance to a drug based on the cells' GFP level was determined.
High throughput in-vitro screens—For high-throughput screens or drug dose curves, cells were counted by Vi-Cell XR (Beckman coulter). Cells were seeded on 384 wells plates (Corning, 3712) using the EL406 washer dispenser (BioTek). Liquid handling of medium and drugs was effected by CyBi (WellFlex vario, CyBio). GFP fluorescence of cells was measured at 477/517 nm (excitation/emission) using Cytation3 (BioTek). Due to fluorescence reading bias at plate margins and corners, these margins were discarded for analysis.
High-throughput secretome screens—To screen for the effect of secreted factors on the response of cell lines to different drugs, the following seven-days procedure was performed. On day 0, GFP expressing cells were seeded at 1500-2000 cells per well on 384-wells plates (Corning, 3712), depending on the cell line's proliferation rate. Each plate was seeded with one cell line. At day 1, each plate was treated with the secretome library (Table 2 hereinabove), one well per factor. Immediately afterwards, each plate was treated either with a drug (Table 1 hereinabove) at the EC90 concentration or with DMSO control. The CyBi liquid handler was used to treat each plate with a drug and the secretome library as well as to replace the medium, drug and secreted factors following 3 days of incubation (day 4). Cell fluorescence was read at days 1, 4 and 7 by Cytation3, and for some of the experiments at day 6 as well. Wells of interest were imaged at day 7 using the Operetta (PerkinElmer).
(2) Based on observations, the plate area spanning rows 4-13 and columns 4-21 was hardly affected by plate margins biases. This area is referred to herein as plate core. To control for row specific and column specific biases, plate outliers (Zscore>4 or Zscore<−4) and edges were masked. Next, to capture row and column (col) biases for the i-th row and the j-th column, the bias factor was calculated:
Upon QC completion, 199 experiment plates and 79 control (DMSO) plates were left for further analysis. • 4—Scoring methods-A GFP value for wells without secretome factors was obtained by averaging over the plate internal control wells. Those wells contained the solvents used in the secretome library. pScore: The effect of the secreted factors on proliferation under DMSO was evaluated using pScore (proliferation score). Values were given in percent units.
rScore: The effect of the secreted factors on resistance to anti-cancer drugs was evaluated using rScore (rescue score). rScore was assigned to a given factor under two conditions: • 1. drug effect was >30% (residual drug growth<0.7) • 2. proliferation ratio between factor treated and untreated cells in the presence of drug was higher than one:
rSscore=S−S*residual drug growth
Based on manual inspection of the rScore distribution across the data, the threshold for a potential effect on drug resistance was set to 0.2 (FIGS. 8A-D).
(*) Negative values were considered as zero. […] Groups with less than 4 experiments were discarded, finally resulting in 13 groups of experiments (FIG. 1E). […]

[2] = tested on: UACC62 melanoma BRAF (V600E) cell line; test: Human and mouse factor mediated resistance to vemurafenib in vitro; format: cell-based; settings: for factor-mediated resistance to vemurafenib: FGF2 25 ng/ml
Description: P-value of the rScore abrogation following the addition of FGFRi was calculated by two-sided t-test. ** P<0.01.

[3] = tested on: SK-MEL-5 BRAF (V600E) melanoma cells; test: Co-culture of stroma (WI-38 or HS-5) and cancer cells; format: cell-based, human
Description: SK-MEL-5 BRAF (V600E) melanoma cells were co-cultured with the lung-derived stromal cell line WI-38 or with the bone marrow-derived stromal cell line HS-5 with or without vemurafenib (4 μM). […] Vehicle—DMSO, EGFRi—gefitinib (0.1 μM), EGFRi/HER2i—lapatinib (10 nM), METi—crizotinib (0.1 μM), FGFRi—AZD4547 (50 nM), NFkB/TNFRi—CAPE (10 μM), TGFBRi-LY2109761 (0.5 μM), gp130i—SC144 (1 nM). […] Error bars represent standard error. […] Error bars represent standard error. […] Human BRAF (V600E) melanoma cell lines UACC62 or G361 were used to generate xenograft tumor models in various tissues of nude mice. When tumors reached a volume of 500-700 μmm^3, they were resected, sliced, and cultured ex-vivo in the presence of different drug combinations or DMSO control. Following 4 days of drug treatment, slices were fixed, embedded in paraffin blocks, and subjected to immunohistochemistry, using anti-pERK antibody, or to immuno-fluorescence, using anti-pFGFR1 antibody. BRAFi (vemurafenib, 4 μM), FGFRi (AZD4547, 2 μM). Scale bar represents 50 μm.
Four hours later, the melanoma BRAF (V600E) mutated cell line SK-MEL-5 was seeded on top of the stromal cells at a concentration of 1700 cells per well, or seeded without stroma. […] Concentrations of the inhibitors were based on dose curves with SK-MEL-5. For each inhibitor of potential mechanism of resistance, the maximal concentration with minimal effect (toxicity) on cell growth was selected (Cmax).
To compare rScore value of stroma-mediated resistance with or without a given inhibitor, the rScore values of each inhibitor in the presence of stroma, was calculated. As a reduction in rScore may stem from mere toxicity of the inhibitor, rather than the abrogation of the stroma mediated resistance, each inhibitor rScore was penalized by its toxicity.
rScoreinhibitor=rScoreinhibitor+(rScorestroma−rScoreinhibitor)*tOxicitY(Cmax)inhibitor

human NSCLC tumor biopsy = test: EVOC of NSCLC patient biopsies, viability; format: cell-based; settings: treatment-naïve patient; osimertinib 4 μM alone
From the text: Error bars represent standard error. […] Scale bar represents 50 μm. […] Error bars represent standard error. […] Scale bar represents 50 μm.
Scale bar represents 50 μm. […] Scale bar represents 50 μm. […] Scale bar represents 50 μm.

[4] = 80 experiments of BRAF (V600E) mutated melanoma cell lines treated with BRAF/MEK inhibitors
[5] = 80 experiments of BRAF (V600E) mutated melanoma cell lines treated with BRAF/MEK inhibitors, in multiple experiments
[6] = vemurafenib 2 μM, mTNF 50 ng/ml

Question: Which results are given for “FGF2: human FGF2, recombinant secreted factor, FGFR ligand”?
Answer: rank by rScore values (resistance) [1, 4]: 3; rScore [1, 5]: above 0.2; effect on resistance to BRAF/MEK inhibition (rScore sorted, 297 factors) [1]: strongest effect on resistance; factor-mediated resistance to vemurafenib [2, 6]: mediated resistance to vemurafenib

Question: Which results are given for CCCS(=O)(=O)Nc1ccc(F)c(C(=O)c2c[nH]c3ncc(-c4ccc(Cl)cc4)cc23)c1F [vemurafenib]?
Answer: rScore of stroma-conferred resistance ([3]; co-culture with bone-marrow derived stromal cell line HS-5): > 0.2; rScore of stroma-conferred resistance ([3]; co-culture with lung-derived stromal cell line WI-38): > 0.2

Question: How did the cancer cell viability (human NSCLC tumor biopsy) turn out when C=CC(=O)Nc1cc(Nc2nccc(-c3cn(C)c4ccccc34)n2)c(OC)cc1N(C)CCN(C)C [osimertinib] was run?
Answer: did not affect cancer cell viability

Question: Which “toxicity to UACC62” value ([2]; all concentrations tested) does the source give for FC(F)(F)c1nnc2c(Sc3ccccc3)nc3ccc(Cl)cc3n12 [R7050, reference compound] here?
Answer: not toxic

Question: And the “abrogation of mouse TNF mediated resistance” value ([2]; vemurafenib 2 μM, mTNF 50 ng/ml, range of concentrations)?
Answer: does not abrogate the mouse TNF mediated resistance

B1: CCL4: secreted factor of the secretome library (protein, UniProt P13236 24-92, looked up)
C-C motif chemokine 4: APMGSDPPTACCFSYTARKLPRNFVVDYYETSSLCSQPAVVFQTKRSKQVCADPSESWVQEYVYDLELN
Question: With B1 as the molecule, how does the “effect on resistance to BRAF/MEK inhibition (rScore sorted, 297 factors)” value [1] read?
Answer: strongest effect on resistance

B2: mFGF2: mouse FGF2 (protein, UniProt P15655 10-154, looked up)
Fibroblast growth factor 2: PALPEDGGAAFPPGHFKDPKRLYCKNGGFFLRIHPDGRVDGVREKSDPHVKLQLQAEERGVVSIKGVCANRYLAMKEDGRLLASKCVTEECFFFERLESNNYNTYRSRKYSSWYVALKRTGQYKLGSKTGPGQKAILFLPMSAKS
Question: With B2 as the molecule, how does the “factor-mediated resistance to vemurafenib” value [2, 6] read?
Answer: mediated resistance to vemurafenib

B3: IL1A: secreted factor of the secretome library (protein, UniProt P01583 113-271, looked up)
Interleukin-1 alpha: SAPFSFLSNVKYNFMRIIKYEFILNDALNQSIIRANDQYLTAAALHNLDEAVKFDMGAYKSSKDDAKITVILRISKTQLYVTAQDEDQPVLLKEMPEIPKTITGSETNLLFFWETHGTKNYFTSVAHPNLFIATKQDYWVCLAGGPPSITDFQILENQA
Question: With B3 as the molecule, how does the “effect on resistance to BRAF/MEK inhibition (rScore sorted, 297 factors)” value [1] read?
Answer: strongest effect on resistance

B4: LTA: lymphotoxin alpha (protein, UniProt P01374 35-205, looked up)
Lymphotoxin-alpha: LPGVGLTPSAAQTARQHPKMHLAHSTLKPAAHLIGDPSKQNSLLWRANTDRAFLQDGFSLSNNSLLVPTSGIYFVYSQVVFSGKAYSPKATSSPLYLAHEVQLFSSQYPFHVPLLSSQKMVYPGLQEPWLHSMYHGAAFQLTQGDQLSTHTDGIPHLVLSPSTVFFGAFAL
Question: How did the “effect on resistance to BRAF/MEK inhibition (rScore sorted, 297 factors)” value [1] turn out when B4 was run?
Answer: strongest effect on resistance

B5: TGFB3: Transforming Growth Factor Beta 3 (protein, UniProt P10600 301-412, looked up)
Transforming growth factor …: ALDTNYCFRNLEENCCVRPLYIDFRQDLGWKWVHEPKGYYANFCSGPCPYLRSADTTHSTVLGLYNTLNPEASASPCCVPQDLEPLTILYYVGRTPKVEQLSNMVVKSCKCS
Question: How did the “rank by bScore values (synergism)” value [1, 4] turn out when B5 was run?
Answer: −3

Question: And the bScore [1, 5]?
Answer: below −0.15

B6: ACHE: acetylcholinesterase (protein, UniProt P22303 32-614, looked up)
Acetylcholinesterase: EGREDAELLVTVRGGRLRGIRLKTPGGPVSAFLGIPFAEPPMGPRRFLPPEPKQPWSGVVDATTFQSVCYQYVDTLYPGFEGTEMWNPNRELSEDCLYLNVWTPYPRPTSPTPVLVWIYGGGFYSGASSLDVYDGRFLVQAERTVLVSMNYRVGAFGFLALPGSREAPGNVGLLDQRLALQWVQENVAAFGGDPTSVTLFGESAGAASVGMHLLSPPSRGLFHRAVLQSGAPNGPWATVGMGEARRRATQLAHLVGCPPGGTGGNDTELVACLRTRPAQVLVNHEWHVLPQESVFRFSFVPVVDGDFLSDTPEALINAGDFHGLQVLVGVVKDEGSYFLVYGAPGFSKDNESLISRAEFLAGVRVGVPQVSDLAAEAVVLHYTDWLHPEDPARLREALSDVVGDHNVVCPVAQLAGRLAAQGARVYAYVFEHRASTLSWPLWMGVPHGYEIEFIFGIPLDPSRNYTAEEKIFAQRLMRYWANFARTGDPNEPRDPKAPQWPPYTAGAQQYVSLDLRPLEVRRGLRAQACAFWNRFLPKLLSATDTLDEAERQWKAEFHRWSSYMVHWKNQFDHYSKQDRCSDL
Question: How did the “synergism with BRAF and MEK inhibition” value ([1]; multiple melanoma cell lines) turn out when B6 was run?
Answer: synergistic effect
